Measurements as given in patent US20250250268A1 (SHANGHAI HAOYUAN MEDCHEMEXPRESS CO., LTD., priority 2022, published 2025).
Entries after “also recorded” stand apart in the source; their conditions may differ.

Experiments:
[1] = Drying transformation relationship of Form A-F (vacuum drying, XRPD); details: for Description / XRPD results: 60-80° C. vacuum drying; for Stability / conversion of crystal form on drying: dried at high temperatures, solvent removed
microglia = assay: Pharmacological animal experiment: microglia clearance in mice fed PLX5622 crystal forms (IBA1 staining, Image j counting); type: in vivo, C57BL/6J mice; details: for 7-day clearance rate / 14-day clearance rate / 7-day number of cells / 14-day number of cells: C57BL/6J mice, in AIN-76A food; for 7-day clearance rate / 14-day clearance rate: administration every other day, average clearance rate of microglia; for 7-day clearance rate / 7-day number of cells: 7 days; for 14-day clearance rate / 14-day number of cells: 14 days; for 7-day number of cells / 14-day number of cells: average statistical number of microglia (total number in brains); for Microglia clearance rate compared with Form A: 7-day or 14-day clearance rate, mice
Experimental: Mice were adaptively fed for 3-6 days upon arrival in the mouse room, with AIN-76A food. Group A was administered PLX5622 compound Form A, and Group B was administered PLX5622 compound Form B.
Formal administration: Administration was conducted every other day, on days 1, 3, 5, 7, 9, 11, and 13. Each time of administration required weighing, and the amount was adjusted to 4 g per mouse (actual consumption around 3 g per mouse).
After anesthesia, mice were immobilized using tape or needles/pins, and the fur on the lateral thorax was lifted with forceps. The skin was then cut with scissors to expose the white sternum. The diaphragm was carefully incised with fine scissors, taking care not to damage the above heart.
A small incision was made on the right atrium. The heart was fixed with forceps, and an injection needle was inserted into the left ventricle from the apex of the heart at an angle roughly parallel to the left-right midline of the heart.
Sucrose gradient dehydration: The mouse brains were fixed in 4% paraformaldehyde overnight and then dehydrated with 20% sucrose solution until the material sank to the bottom, followed by dehydration with 30% sucrose solution until the material sank to the bottom. Embedding and sectioning: get 25-40 μm sections, which are the tissues that need to be stained.
• 1. After washing the sections, blocking was initiated with 5% BSA in PBST for 2 hours. • 2. Incubation with the primary antibody, IBA1 (1:500) in 1% BSA in PBST, at 4° C. for at least 14 hours. • 3. Incubation with Alexa Fluor-conjugated secondary antibody (1:500) in 1% BSA in PBST, at room temperature for 2 hours. • 4. Washed with PBS 3-5 times for 10 minutes each, stained with DAPI, followed by addition of anti-fade reagent, dried overnight, and then photographed and scanned for analysis.
Image j counting: All microglia with complete morphology need to be counted.
Among them, the mice are all 3-month-old male mice; the clearance rates are the average clearance rate and the average statistical number of microglia (total number in brains).

[2] = Stability tests of crystal forms under accelerated and low-temperature storage (XRPD, HPLC); type: physicochemical; details: for Polymorphic changes on storage (XRPD): accelerated test conditions (40° C., 75% RH) and low-temperature storage conditions (−20° C.)
[3] = Pharmacokinetic determination in rats (feed administration, plasma and brain); type: in vivo; details: 1200 ppm in AIN-76A standard feed, 7-day and 14-day groups, Cmax and AUC
Excerpt: Plasma or brain samples from the 2 groups were collected for pharmacokinetic (PK) parameter analysis. For the 7-day group, plasma samples were collected on day 1, day 3, and day 7; after the rats were euthanized on day 7, brain tissue samples were collected. For the […], plasma samples were collected from rats on day 10 and 14; on day 14, the mice were euthanized, and brain tissue samples were collected.
For the processing of plasma samples, rats were anesthetized on days 1, 3, 7 and 10 and 14, and approximately 150 μL of blood was collected via cardiac puncture into anticoagulant centrifuge tubes containing K 2 EDTA. Within 15 minutes of sampling, plasma was obtained by centrifugation at 2000 g for 5 minutes at 4° C. and stored at below −60° C. until analysis. For the processing of brain tissue samples, the rats were euthanized on day 7 and 14, and then the brain tissue was collected. The residual blood on the surface of the tissue was washed away with normal saline, dried with filter paper, weighed, and frozen in dry ice, then store in a refrigerator below −60° C. until sample analysis. Pharmacokinetic (PK) parameters Cmax and AUC were calculated based on a non-compartmental model using WinNonlin 8.2 software. Drug concentrations in mouse plasma and brain tissue were determined.

Row | Compound | Description ([1]; 24 hours) | XRPD results ([1]; 24 hours) | Stability / conversion of crystal form on drying [1] | Purity (by HPLC %) ([2]; 40° C./75% RH, 5 Days) [%] | XRPD ([2]; 40° C./75% RH, 5 Days) | Purity (by HPLC %) ([2]; 40° C./75% RH, 10 Days) [%] | XRPD ([2]; 40° C./75% RH, 10 Days) | Purity (by HPLC %) ([2]; Initial, 0 Day) [%] | XRPD ([2]; Initial, 0 Day) | Polymorphic changes on storage (XRPD) [2] | Purity (by HPLC %) ([2]; −20° C., 10 months) [%] | XRPD ([2]; −20° C., 10 months) | 7-day clearance rate (microglia) [%] | 14-day clearance rate (microglia) [%] | 7-day number of cells (microglia) | 14-day number of cells (microglia) | further results
1 | COc1ncc(F)cc1CNc1ccc(Cc2c[nH]c3ncc(C)cc23)c(F)n1 [Form E, 6-Fluoro-N-((5-fluoro-2-methoxypyridin-3-yl)methyl)-5-((5-methyl-1H-pyrrolo[2,3-b]pyridin-3-yl)methyl) pyridin-2-amine] | White to off-white | Form A + B | – | – | – | – | – | – | – | – | – | – | – | – | – | – | –
2 | COc1ncc(F)cc1CNc1ccc(Cc2c[nH]c3ncc(C)cc23)c(F)n1 [Form D, 6-Fluoro-N-((5-fluoro-2-methoxypyridin-3-yl)methyl)-5-((5-methyl-1H-pyrrolo[2,3-b]pyridin-3-yl)methyl) pyridin-2-amine] | White to off-white | Form A | converting it to Form A | – | – | – | – | – | – | – | – | – | – | – | – | – | –

The next lines start with results.

Row | Description ([1]; 24 hours) | XRPD results ([1]; 24 hours) | Stability / conversion of crystal form on drying [1] | Purity (by HPLC %) ([2]; 40° C./75% RH, 5 Days) [%] | XRPD ([2]; 40° C./75% RH, 5 Days) | Purity (by HPLC %) ([2]; 40° C./75% RH, 10 Days) [%] | XRPD ([2]; 40° C./75% RH, 10 Days) | Purity (by HPLC %) ([2]; Initial, 0 Day) [%] | XRPD ([2]; Initial, 0 Day) | Polymorphic changes on storage (XRPD) [2] | Purity (by HPLC %) ([2]; −20° C., 10 months) [%] | XRPD ([2]; −20° C., 10 months) | Compound | 7-day clearance rate (microglia) [%] | 14-day clearance rate (microglia) [%] | 7-day number of cells (microglia) | 14-day number of cells (microglia) | further results
3 | – | – | remain stable | 99.90 | Form A | 99.90 | Form A | 99.90 | Form A | did not undergo any polymorphic changes | 99.90 | Form A | COc1ncc(F)cc1CNc1ccc(Cc2c[nH]c3ncc(C)cc23)c(F)n1 [Form A, 6-Fluoro-N-((5-fluoro-2-methoxypyridin-3-yl)methyl)-5-((5-methyl-1H-pyrrolo[2,3-b]pyridin-3-yl)methyl) pyridin-2-amine] | 72.6 | 75.1 | (1337) | (922) | Individual Impurity (RRT/%) RRT = 0.33 ([2]; 40° C./75% RH, 5 Days): 0.06%; Individual Impurity (RRT/%) RRT = 1.50 ([2]; 40° C./75% RH, 5 Days): 0.04%; Individual Impurity (RRT/%) RRT = 0.33 ([2]; 40° C./75% RH, 10 Days): 0.06%; Individual Impurity (RRT/%) RRT = 1.50 ([2]; 40° C./75% RH, 10 Days): 0.04%; Individual Impurity (RRT/%) RRT = 0.33 ([2]; Initial, 0 Day): 0.06%; Individual Impurity (RRT/%) RRT = 1.50 ([2]; Initial, 0 Day): 0.04%; Individual Impurity (RRT/%) RRT = 0.33 ([2]; −20° C., 10 months): 0.06%; Individual Impurity (RRT/%) RRT = 1.50 ([2]; −20° C., 10 months): 0.04%; Description ([1]; 2 days): White to off-white; XRPD results ([1]; 2 days): Form A
4 | – | – | remain stable | 99.92 | Form B | 99.92 | Form B | 99.92 | Form B | did not undergo any polymorphic changes | 99.92 | Form B | COc1ncc(F)cc1CNc1ccc(Cc2c[nH]c3ncc(C)cc23)c(F)n1 [Form B, 6-Fluoro-N-((5-fluoro-2-methoxypyridin-3-yl)methyl)-5-((5-methyl-1H-pyrrolo[2,3-b]pyridin-3-yl)methyl) pyridin-2-amine] | 87 | 90 | (482) | (377) | Pharmacokinetic performance [3]: better pharmacokinetic performance; Microglia clearance rate compared with Form A (microglia): better than Form A; Microglia clearance rate compared with Form A (microglia; listed as crystal form B): better clearance rate of microglia cells at 7 or 14 days compared to crystal form A; also recorded: higher rate of microglia cell clearance at 7 days or 14 days; Individual Impurity (RRT/%) RRT = 1.04 ([2]; 40° C./75% RH, 5 Days): 0.05%; Individual Impurity (RRT/%) RRT = 1.29 ([2]; 40° C./75% RH, 5 Days): 0.03%; Individual Impurity (RRT/%) RRT = 1.04 ([2]; 40° C./75% RH, 10 Days): 0.05%; Individual Impurity (RRT/%) RRT = 1.29 ([2]; 40° C./75% RH, 10 Days): 0.03%; Individual Impurity (RRT/%) RRT = 1.04 ([2]; Initial, 0 Day): 0.05%; Individual Impurity (RRT/%) RRT = 1.29 ([2]; Initial, 0 Day): 0.03%; Individual Impurity (RRT/%) RRT = 1.04 ([2]; −20° C., 10 months): 0.05%; Individual Impurity (RRT/%) RRT = 1.29 ([2]; −20° C., 10 months): 0.03%; Description ([1]; 3 days): White to off-white; XRPD results ([1]; 3 days): Form B
5 | White to off-white | Form A | converted to Form A | – | – | – | – | – | – | – | – | – | COc1ncc(F)cc1CNc1ccc(Cc2c[nH]c3ncc(C)cc23)c(F)n1 [Form C, 6-Fluoro-N-((5-fluoro-2-methoxypyridin-3-yl)methyl)-5-((5-methyl-1H-pyrrolo[2,3-b]pyridin-3-yl)methyl) pyridin-2-amine] | – | – | – | – | –
6 | White to off-white | Form A + B | – | – | – | – | – | – | – | – | – | – | COc1ncc(F)cc1CNc1ccc(Cc2c[nH]c3ncc(C)cc23)c(F)n1 [Form F, 6-Fluoro-N-((5-fluoro-2-methoxypyridin-3-yl)methyl)-5-((5-methyl-1H-pyrrolo[2,3-b]pyridin-3-yl)methyl) pyridin-2-amine] | – | – | – | – | –
